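Protocol summary: plate cells (96-well), add compound at 5 concentrations, incubate 48 h, interpolate endpoints linearly. Here, GI50 denotes the concentration required for 50% inhibition of growth. TGI: total growth inhibition.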
Columns and labels:
Experiment in all cases: NCI-60 cell line screen, 48 h
DU-145 prostate = test system: DU-145 prostate
MOLT-4 leukemia = test system: MOLT-4 leukemia
CCRF-CEM leukemia = test system: CCRF-CEM leukemia
HCT-15 colon = test system: HCT-15 colon
NCI-H226 lung = test system: NCI-H226 lung
786-0 renal = test system: 786-0 renal
SNB-19 CNS = test system: SNB-19 CNS
OVCAR-3 ovarian = test system: OVCAR-3 ovarian
A549 NSCLC = test system: A549 NSCLC
ACHN renal = test system: ACHN renal
IGROV1 ovarian = test system: IGROV1 ovarian
OVCAR-4 ovarian = test system: OVCAR-4 ovarian
BT-549 breast = test system: BT-549 breast
RPMI-8226 leukemia = test system: RPMI-8226 leukemia
K-562 leukemia = test system: K-562 leukemia
EKVX NSCLC = test system: EKVX NSCLC
MCF7 breast = test system: MCF7 breast
HCT-116 colon = test system: HCT-116 colon
KM12 colon = test system: KM12 colon
LOX IMVI melanoma = test system: LOX IMVI melanoma
HOP-62 NSCLC = test system: HOP-62 NSCLC
SN12C renal = test system: SN12C renal
SF-268 CNS = test system: SF-268 CNS
SF-539 CNS = test system: SF-539 CNS
HS 578T breast = test system: HS 578T breast
T-47D breast = test system: T-47D breast
A498 renal = test system: A498 renal
NCI-H460 lung = test system: NCI-H460 lung
NCI-H23 lung = test system: NCI-H23 lung
OVCAR-8 ovarian = test system: OVCAR-8 ovarian
M14 melanoma = test system: M14 melanoma
SR leukemia = test system: SR leukemia
HT29 colon = test system: HT29 colon
SNB-75 CNS = test system: SNB-75 CNS
U251 CNS = test system: U251 CNS
MALME-3M melanoma = test system: MALME-3M melanoma
UO-31 renal = test system: UO-31 renal
CAKI-1 renal = test system: CAKI-1 renal
SW-620 colon = test system: SW-620 colon
NCI/ADR-RES ovarian = test system: NCI/ADR-RES ovarian
SF-295 CNS = test system: SF-295 CNS
HL-60(TB) leukemia = test system: HL-60(TB) leukemia
TK-10 renal = test system: TK-10 renal
PC-3 prostate = test system: PC-3 prostate
SK-MEL-5 melanoma = test system: SK-MEL-5 melanoma
SK-MEL-28 melanoma = test system: SK-MEL-28 melanoma
RXF 393 renal = test system: RXF 393 renal
HCC-2998 colon = test system: HCC-2998 colon
MDA-MB-435 = test system: MDA-MB-435
HOP-92 NSCLC = test system: HOP-92 NSCLC
UACC-62 melanoma = test system: UACC-62 melanoma
SK-OV-3 ovarian = test system: SK-OV-3 ovarian
OVCAR-5 ovarian = test system: OVCAR-5 ovarian
COLO 205 colon = test system: COLO 205 colon
NCI-H522 lung = test system: NCI-H522 lung
UACC-257 melanoma = test system: UACC-257 melanoma
MDA-MB-231 breast = test system: MDA-MB-231 breast

With `COc1cccc(Cn2cc3c(c2)-c2oncc2CC3)c1` the GI50 (DU-145 prostate) was 314 nM, the TGI (DU-145 prostate) was 1240 nM and the GI50 (MOLT-4 leukemia) was 508 nM. It also gave a TGI (MOLT-4 leukemia) greater than 21.7 µM, a GI50 (CCRF-CEM leukemia) of 253 nM and a GI50 (HCT-15 colon) of 401 nM. It also gave a TGI (HCT-15 colon) greater than 38.1 µM, a GI50 (NCI-H226 lung) of 2720 nM and a TGI (NCI-H226 lung) greater than 100 µM. The GI50 (786-0 renal) was 1980 nM, the TGI (786-0 renal) was greater than 100 µM and the GI50 (SNB-19 CNS) was 543 nM. It also gave a TGI (SNB-19 CNS) greater than 100 µM, a GI50 (OVCAR-3 ovarian) of 267 nM and a TGI (OVCAR-3 ovarian) of 700 nM. The GI50 (A549 NSCLC) was 559 nM, the TGI (A549 NSCLC) was greater than 56.1 µM and the GI50 (ACHN renal) was 876 nM. It also gave a TGI (ACHN renal) greater than 100 µM, a GI50 (IGROV1 ovarian) of 801 nM and a TGI (IGROV1 ovarian) greater than 100 µM. The GI50 (OVCAR-4 ovarian) was 1300 nM, the TGI (OVCAR-4 ovarian) was greater than 85.4 µM and the GI50 (BT-549 breast) was 6.85 µM. It also gave a TGI (BT-549 breast) greater than 100 µM, a GI50 (RPMI-8226 leukemia) of 365 nM and a GI50 (K-562 leukemia) of 315 nM. For the same compound, the TGI (K-562 leukemia) was greater than 100 µM, the GI50 (EKVX NSCLC) was 508 nM and the TGI (EKVX NSCLC) was greater than 77 µM. For the same compound, the GI50 (MCF7 breast) was 378 nM, the TGI (MCF7 breast) was greater than 100 µM and the GI50 (HCT-116 colon) was 430 nM. It also gave a TGI (HCT-116 colon) of 29.4 µM, a GI50 (KM12 colon) of 379 nM and a TGI (KM12 colon) of 3.02 µM. It also gave a GI50 (LOX IMVI melanoma) of 912 nM, a TGI (LOX IMVI melanoma) greater than 100 µM and a GI50 (HOP-62 NSCLC) of 528 nM. The TGI (HOP-62 NSCLC) was greater than 100 µM, the GI50 (SN12C renal) was 597 nM and the TGI (SN12C renal) was greater than 100 µM. The GI50 (SF-268 CNS) was 918 nM, the TGI (SF-268 CNS) was greater than 100 µM and the GI50 (SF-539 CNS) was 266 nM. The GI50 (HS 578T breast) was 249 nM, the TGI (HS 578T breast) was 886 nM and the GI50 (T-47D breast) was 246 nM. The TGI (T-47D breast) was 6.38 µM, the GI50 (A498 renal) was 239 nM and the TGI (A498 renal) was 1190 nM. For the same compound, the GI50 (NCI-H460 lung) was 338 nM, the TGI (NCI-H460 lung) was 4.1 µM and the GI50 (NCI-H23 lung) was 471 nM. For the same compound, the TGI (NCI-H23 lung) was greater than 80.7 µM, the GI50 (OVCAR-8 ovarian) was 622 nM and the TGI (OVCAR-8 ovarian) was greater than 69.3 µM. The GI50 (M14 melanoma) was 374 nM, the TGI (M14 melanoma) was greater than 48.2 µM and the GI50 (SR leukemia) was 312 nM. It also gave a TGI (SR leukemia) of 6.03 µM, a GI50 (HT29 colon) of 306 nM and a TGI (HT29 colon) of 11.7 µM. The GI50 (SNB-75 CNS) was 211 nM, the TGI (SNB-75 CNS) was 895 nM and the GI50 (U251 CNS) was 386 nM. It also gave a TGI (U251 CNS) of 35.8 µM, a GI50 (MALME-3M melanoma) of 915 nM and a TGI (MALME-3M melanoma) of 80.1 µM. It also gave a GI50 (UO-31 renal) of 671 nM, a TGI (UO-31 renal) of 43.7 µM and a GI50 (CAKI-1 renal) of 354 nM. The TGI (CAKI-1 renal) was greater than 84.8 µM, the GI50 (SW-620 colon) was 319 nM and the TGI (SW-620 colon) was greater than 100 µM. For the same compound, the GI50 (NCI/ADR-RES ovarian) was 317 nM, the GI50 (SF-295 CNS) was 245 nM and the TGI (SF-295 CNS) was 1040 nM. For the same compound, the GI50 (HL-60(TB) leukemia) was 247 nM, the TGI (HL-60(TB) leukemia) was 762 nM and the GI50 (TK-10 renal) was 803 nM. The TGI (TK-10 renal) was greater than 100 µM, the GI50 (PC-3 prostate) was 751 nM and the TGI (PC-3 prostate) was greater than 100 µM. The GI50 (SK-MEL-5 melanoma) was 440 nM, the TGI (SK-MEL-5 melanoma) was 3.09 µM and the GI50 (SK-MEL-28 melanoma) was 746 nM. It also gave a TGI (SK-MEL-28 melanoma) greater than 100 µM, a GI50 (RXF 393 renal) of 368 nM and a GI50 (HCC-2998 colon) of 442 nM. It also gave a TGI (HCC-2998 colon) of 7.98 µM, a GI50 (MDA-MB-435) of 76.9 nM and a TGI (MDA-MB-435) of 327 nM. For the same compound, the GI50 (HOP-92 NSCLC) was 2170 nM, the TGI (HOP-92 NSCLC) was 68.3 µM and the GI50 (UACC-62 melanoma) was 662 nM. The TGI (UACC-62 melanoma) was greater than 88.8 µM, the GI50 (SK-OV-3 ovarian) was 361 nM and the TGI (SK-OV-3 ovarian) was 6.03 µM. It also gave a GI50 (OVCAR-5 ovarian) of 693 nM, a TGI (OVCAR-5 ovarian) greater than 100 µM and a GI50 (COLO 205 colon) of 313 nM. It also gave a TGI (COLO 205 colon) of 1050 nM, a GI50 (NCI-H522 lung) of 326 nM and a TGI (NCI-H522 lung) of 1890 nM. For the same compound, the GI50 (UACC-257 melanoma) was 4.13 µM, the TGI (UACC-257 melanoma) was greater than 79.7 µM and the GI50 (MDA-MB-231 breast) was 636 nM. For the same compound, the TGI (MDA-MB-231 breast) was 96.8 µM.

From PubChem BioAssay (NCI)
